This is an account of results in ChEMBL document CHEMBL4138236, “Trisubstituted barbiturates and thiobarbiturates: Synthesis and biological evaluation as xanthine oxidase inhibitors, antioxidants, antibacterial and anti-proliferative agents” (Eur J Med Chem, 2018).

≈ marks a conversion by molar mass, not a printed value.

The nature of series [1]: Antioxidant activity assessed as DPPH radical scavenging activity after 60 mins by spectrophotometric method. In kind it is functional. In general terms: The DPPH test is a chemical assay of radical scavenging.
Series [2] in a line: Antioxidant activity assessed as DPPH radical scavenging activity at 30 uM after 20 mins by spectrophotometric method relative to control. Type of series: functional.
Series [3] is described as follows: Antioxidant activity assessed as DPPH radical scavenging activity after 20 mins by spectrophotometric method. In kind it is functional.
For series [4], the system named is NHDF. In words: Antiproliferative activity against NHDF at 30 uM after 72 hrs by MTT assay relative to control. In kind it is cell-based. The note with it: human. Background: Formazan colour is commonly taken as a measure of viable cells.
The test system of series [5] is Acinetobacter baumannii. Kind of series: Antibacterial activity against Acinetobacter baumannii LMG 1025 after 24 hrs by broth microdilution method. To be noted: LMG 1025, 24 h. Type of series: functional. A general note: Broth dilution looks for growth in wells or tubes with falling amounts of substance.
The test system of series [6] is Escherichia coli. Kind of series: Antibacterial activity against Escherichia coli ATCC 25922 after 24 hrs by broth microdilution method. Type of series: functional. To be noted: ATCC 25922, 24 h.
The subject of series [7] is Bacillus cereus. Kind of series: Antibacterial activity against Bacillus cereus ATCC 1178 after 24 hrs by broth microdilution method. Type of series: functional. To be noted: ATCC 1178, 24 h.
Series [8] concerns Salmonella typhimurium. Kind of series: Antibacterial activity against Salmonella typhimurium ATCC 13311 after 24 hrs by broth microdilution method. In kind it is functional, Salmonella enterica subsp. enterica serovar Typhimurium. To be noted: Salmonella enterica, ATCC 13311, 24 h.
Series [9] relates to MCF7. Kind of series: Antiproliferative activity against human MCF7 cells at 30 uM after 72 hrs by MTT assay relative to control. In kind it is functional.
The subject of series [10] is Staphylococcus aureus. In words: Antibacterial activity against Staphylococcus aureus ATCC 25923 after 24 hrs by broth microdilution method. In kind it is functional. The note with it: ATCC 25923, 24 h.
Series [11] has as its system Klebsiella pneumoniae. In words: Antibacterial activity against Klebsiella pneumoniae ATCC 13883 after 24 hrs by broth microdilution method. The note with it: ATCC 13883, 24 h. In kind it is functional.
The test system of series [12] is Pseudomonas aeruginosa. Kind of series: Antibacterial activity against Pseudomonas aeruginosa ATCC 27853 after 24 hrs by broth microdilution method. To be noted: ATCC 27853, 24 h. Type of series: functional.
Series [13] is described as follows: Antioxidant activity assessed as DPPH radical scavenging activity at 30 uM after 60 mins by spectrophotometric method relative to control. Type of series: functional.
Series [14] concerns MCF7. In words: cells. The note with it: Homo sapiens, MCF7, 72 h.
The subject of series [15] is NHDF. Kind of series: Antiproliferative activity against NHDF after 72 hrs by MTT assay. In kind it is cell-based. To be noted: Homo sapiens.

As for `CC(NNc1ccccc1)=C1C(=O)NC(=O)NC1=O`, the IC50 in series [1] amounted to 20.4 µM; in series [3], 23.9 µM. In addition, the Activity stood at 77.1% in series [2], 74.87% in [4], 40.24% in [9] and 78.1% in series [13]. The MIC is 25 µM (≈ 6.51 µg/mL) in [5]; above 200 µM in series [6]; above 200 µM in series [7]; above 200 µM in [8]; above 200 µM in [10]; above 200 µM in [11]. The compound also returned an MIC in series [12] above 200 µM.

For `O=C1NC(=S)NC(=O)C1=CNc1ccc([N+](=O)[O-])cc1Cl`, the Activity in series [2] came to 0.91%; in series [4], 76.01%; in [9], 32.43%; in series [13], 0.5%. Also, the MIC in series [5], in series [6], in series [7], in [8], in series [10] and in series [11] was above 200 µM each time. Further, in [12], the MIC is above 200 µM. Also, it took 13.2 µM to reach half-maximal inhibition in series [14] (IC50).

As for `O=c1[nH]cc(F)c(=O)[nH]1` [FLUOROURACIL], the Activity in [4] was determined as 58.31%; in series [9], 11.88%. Also, the IC50 in series [14] was determined as 2.35 µM; in series [15], 7.38 µM.

`CC(NNc1ccccc1)=C1C(=O)N(C)C(=O)N(C)C1=O`: the IC50 in series [1] stood at 18.8 µM; in series [3], 22.6 µM; in [15], 82 µM. Moreover, the Activity in series [2] came out at 77.1%; in series [4], 65.56%; in series [9], 57.38%; in [13], 76.7%. The MIC in series [5] was 25 µM (≈ 7.21 µg/mL); in [6], above 200 µM; in series [7], above 200 µM; in series [8], above 200 µM; in series [10], above 200 µM; in series [11], above 200 µM. This compound also yielded an MIC in series [12] above 200 µM.

One may read the IC50 as the concentration needed to halve the response being measured. For orientation: MIC means the lowest concentration found to suppress growth. Lower therefore signals a more susceptible organism.
